System: organic acid transport
Assay: Duration of anticonvulsive action with and without probenecid
Type: in vivo, mouse
Details: listed as 2/514
Protocol: To assess NMDA receptor antagonistic properties of the tested agents by assessing anticonvulsive effects. Additionally the role of organic acid transporters in the elimination from the brain of tested agents was assessed by using an inhibitor, Probenicid, on the duration of anticonvulsive activity.
Male albino Swiss mice (19-21 g) housed 10-15 per cage were used for the NMDA lethality test (Leander et al., 1988). For pentylenetetrazol (PTZ)-induced convulsions male albino Swiss mice (25-34 g.) housed 40 per cage (58×38×20 cm) were used while in the maximal electroshock (MES) and motor impairment tests NMR female mice (18-28 g) housed 5 per cage were employed. All animals were kept with water and food ad libittum under a 12-h light-dark cycle (light on at 6 a.m.), and at a controlled temperature (20°±0.5° C.). All experiments were performed between 10 a.m. and 5 p.m. Tested agents were injected 15 min. i.p before the induction of convulsions if not stated otherwise (see below). Mrz 2/502 was dissolved in saline added with NaOH. Most other agents were dissolved in the following solution: 0.606 g Tris; 5.0 g. glucose; 0.5 g. Tween 80; and 95 ml water. The choline and tetramethylammonium salts were dissolved in distilled water.
MES (100 Hz, 0.5 sec shock duration, 50 mA shock intensity, 0.9 ms impulse duration, Ugo Basile) was applied through corneal electrodes. The presence of tonic convulsions was scored (tonic extension of hind paws with minimum angle to the body of 90°). In an additional experiment mice were injected with Probenicid (200 mg/kg) 30 min before administration of the tested agents to assess the role of organic acid transport in elimination (duration of action). The aim was to obtain ED50 s for all parameters scored using the Litchfield Wilcoxon (1949) test for quantal dose responses.
Moreover it seems that choline salts have a longer duration of action. Probenecid injection prolonged considerably the duration of anticonvulsive action of all agents tested. For example the half lives of 2/514 and 2/570 were around 40 and 80 minutes respectively in the absence of probenicid. In the presence of probenicid the half lives were prolonged to around 180 and 210 minutes respectively. Thus, it seems that organic acids transport in the choroid plexus out of the brain plays an important role in the short duration of action of the compounds tested..

## O=c1[nH]nc(O)c2c1cc1cc(Br)ccc1[n+]2[O-] [Mrz 2/514, 8-bromo-4-hydroxy-1-oxo-1,2-dihydropyridazino[4,5-b]-quinoline 5-oxide]
Absence of probenecid
  half life of anticonvulsive action: around 40 minutes
Presence of probenecid 200 mg/kg, 30 min before
  half life of anticonvulsive action: around 180 minutes
